Common to all, as to type: cell-based
The subject of assay [1] is Wnt activity (Wnt-responsive SP5 promoter luciferase reporter in SW480 cells). Description: Wnt activity reporter assay: SW480 cells with SP5 promoter-driven firefly luciferase. The following applies: Homo sapiens, 24 h after compound addition, read-out: Wnt inhibition. In a few lines:
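SW480 cells (APC-mutant colon line) stably carrying a lentiviral SP5-promoter (eight TCF/LEF sites) firefly luciferase reporter were plated at ~10,000 cells/well. Luminescence was normalized to DMSO-only cells and used for IC50.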

Another assay concerns the target DYRK1A (Homo sapiens (Human), UniProt Q13627). Description: DYRK1A activity Tau assay: pSer396 Tau in SH-SY5Y cells by ELISA / western blot. The following applies: overnight (16-18 h) exposure.
Assay [2] concerns primary human mesenchymal stem cells (hMSCs). Put plainly: Chondrogenesis assay in primary human mesenchymal stem cells, nodule count vs TGF-β3 positive control. The following applies: 6 days; for Conc (nM) of Max. activity: 6-point dose-response 2700 nM to 10 nM, dose at which maximum chondrogenesis activity was reached; for Conc (nM) of 100% TGF-β3 activity: concentration required to induce chondrogenesis equivalent to TGF-β3 (10 ng/mL); for Max. Activity as % TGF-β3 activity: relative to TGF-β3 (10 ng/mL) positive control. The text has this: The above synthesized compounds were screened using primary human mesenchymal stem cells (hMSCs) to determine their ability to induce chondrogenesis (process by which cartilage is developed).
Human Mesenchymal Stem Cell Culture:
Primary human mesenchymal stem cells (hMSCs) were purchased from Lonza (Walkersville, Md.) and expanded in Mesenchymal Stem Cell Growth Media (Lonza). Cells between passage 3 and 6 were used for the experiments.
Number of nodules in each well was normalized to the average of 3 DMSO treated wells on the same plate using Excel (Microsoft Inc.). The normalized averages (fold change over DMSO) of 3 replicate wells for each compound concentration were calculated. Due to solubility limitations of some of the compounds, curve fitting was incomplete leading to inaccurate EC50 determinations.
Using TGF-β3 as a positive control, the concentration of test compounds required to induce equivalent levels of chondrogenesis is reported. In addition, the maximum activity of each compound and the respective dose that each compound reached maximum chondrogenesis activity is reported.

Assay [3] relates to primary human fibroblasts derived from IPF patients (LL29 cells). Put plainly: Inhibition of the fibrotic process: αSMA staining in TGF-β1 treated LL29 fibroblasts. The following applies: Fibroblast, 72 h, TGF-β1 10 ng/ml, 3 days, read-out: Inhibition of fibrosis IC50.
Method: The above synthesized compounds were screened using primary human fibroblasts (derived from IPF patients) treated with TGF-β1 to determine their ability to inhibit the fibrotic process.
Each compound was dissolved in DMSO as a 10 mM stock and used to prepare compound source plates. […] LL29 cells were plated at 1,000 cells/well in 50 μl/well serum free F12 medium. […] Wells untreated with TGF-β1 were used as control for normalization and calculating IC50 values. Cells were incubated at 37° C. and 5% CO2 for 3 days. Cells were fixed using 4% formaldehyde (Electron Microscopy Sciences), washed 3 times with PBS followed by blocking and permeabilization using 3% Bovine Serum Albumin (BSA; Sigma) and 0.3% Triton X-100 (Sigma) in PBS. […] The IC50 values are reported.

As to `CN1CCN(c2ccc(NC(=O)c3n[nH]c4ccc(-c5cncc(NC(=O)c6cc(F)ccc6F)c5)cc34)cn2)CC1` [Compound 48, 5-(5-(2,5-Difluorobenzamido)pyridin-3-yl)-N-(6-(4-methylpiperazin-1-yl)pyridin-3-yl)-1H-indazole-3-carboxamide], the IC50 in assay [1] was determined as 31 nM. The same compound showed an EC50 on DYRK1A of 2 nM. Besides, in assay [2], the “Conc (nM) of Max. activity” value is listed as 2700 nM, the “Conc (nM) of 100% TGF-β3 activity” value is on record as 2700 nM and the “Max. Activity as % TGF-β3 activity” value is 237%. Also, the IC50 in assay [3] is 67 nM.

As for `COc1ccc(NC(=O)c2n[nH]c3ccc(-c4cncc(CN5CCCC5)c4)cc23)cn1` [Compound 53, N-(6-Methoxypyridin-3-yl)-5-(5-(pyrrolidin-1-ylmethyl)pyridin-3-yl)-1H-indazole-3-carboxamide], the IC50 in assay [1] amounted to 50 nM; in assay [3], 231 nM. This compound also showed a concentration for a half-maximal effect (EC50) on DYRK1A of 2 nM. Also, in assay [2], the “Conc (nM) of Max. activity” value stood at 2700 nM. The “Max. Activity as % TGF-β3 activity” value in assay [2] was determined as 86%.

For `COc1ccc(NC(=O)c2n[nH]c3ccc(-c4cncc(CN5CCC(F)(F)C5)c4)cc23)cn1` [Compound 54, 5-(5-((3,3-Difluoropyrrolidin-1-yl)methyl)pyridin-3-yl)-N-(6-methoxypyridin-3-yl)-1H-indazole-3-carboxamide], the IC50 in assay [1] came to 5 nM; in assay [3] it was 51 nM. At DYRK1A, this compound displayed an EC50 of 2 nM. In addition, in assay [2], the “Conc (nM) of Max. activity” value stood at 300 nM. For the same compound, the “Max. Activity as % TGF-β3 activity” value in assay [2] was 51%.

On to `CN1CCN(c2ccc(NC(=O)c3n[nH]c4ccc(-c5cncc(CN6CCC(F)(F)C6)c5)cc34)cn2)CC1` [Compound 55, 5-(5-((3,3-Difluoropyrrolidin-1-yl)methyl)pyridin-3-yl)-N-(6-(4-methylpiperazin-1-yl)pyridin-3-yl)-1H-indazole-3-carboxamide], for which the IC50 in assay [1] was 4 nM. The compound further returned an EC50 at DYRK1A of 1 nM. For the same compound, in assay [2], the “Conc (nM) of Max. activity” value is 100 nM and the “Max. Activity as % TGF-β3 activity” value is on record as 69%. The IC50 in assay [3] came out at 140 nM.

Regarding `O=C(Nc1cnccc1NC(=O)C1CC1)c1n[nH]c2ccc(-c3cncc(CN4CCCCC4)c3)cc12` [Compound 74, N-(4-(Cyclopropanecarboxamido)pyridin-3-yl)-5-(5-(piperidin-1-ylmethyl)pyridin-3-yl)-1H-indazole-3-carboxamide], the IC50 in assay [1] turned out to be 120 nM. Moreover, in assay [2], the “Conc (nM) of Max. activity” value stood at 10 nM and the “Max. Activity as % TGF-β3 activity” value is 31%. Moreover, the IC50 in assay [3] amounted to 2740 nM.

In the case of `O=C(Nc1cccnc1)c1n[nH]c2ccc(-c3cncc(CN4CC5CC(C4)O5)c3)cc12` [Compound 84, 5-(5-((6-Oxa-3-azabicyclo[3.1.1]heptan-3-yl)methyl)pyridin-3-yl)-N-(pyridin-3-yl)-1H-indazole-3-carboxamide], the IC50 in assay [1] was determined as 67 nM. In assay [2], the “Conc (nM) of Max. activity” value came to 900 nM, the “Conc (nM) of 100% TGF-β3 activity” value worked out at 900 nM and the “Max. Activity as % TGF-β3 activity” value is reported as 121%. The IC50 in assay [3] is 132 nM.

For the compound `CC(C)N1CCC(NC(=O)c2n[nH]c3ccc(-c4cncc(Cl)c4)cc23)CC1` [Compound 1305, 5-(5-Chloropyridin-3-yl)-N-(1-isopropylpiperidin-4-yl)-1H-indazole-3-carboxamide], at DYRK1A, the concentration giving a half-maximal response (EC50) is 124 nM. Moreover, in assay [2], the “Conc (nM) of Max. activity” value is listed as 2700 nM, the “Conc (nM) of 100% TGF-β3 activity” value is 2700 nM and the “Max. Activity as % TGF-β3 activity” value is listed as 121%.

As for `O=C(Nc1ccccn1)c1n[nH]c2cc(F)c(-c3cncc(CN4CCCCC4)c3)cc12` [Compound 1343, 6-Fluoro-5-(5-(piperidin-1-ylmethyl)pyridin-3-yl)-N-(pyridin-2-yl)-1H-indazole-3-carboxamide], a half-maximal response on DYRK1A (EC50) required 2 nM. Moreover, in assay [2], the “Conc (nM) of Max. activity” value came to 2700 nM and the “Max. Activity as % TGF-β3 activity” value was 67%.

The values above are taken from US10669240B2, “5-substituted indazole-3-carboxamides and preparation and use thereof” (Samumed, LLC, priority 2014, dated 2020).
